One data set relates to A549. Kind of data set: Cytotoxicity against human A549 cells. It is filed as functional. The following applies: read-out: ED50 (the source's name).
A short description of data set [1]: Toxicity against brine shrimp. The following applies: artemia, in vivo. The format is organism-based.
The subject of a further data set is MCF7. The experiment in a line: Cytotoxicity against human MCF7 cells. The format is functional. The conditions noted are these: read-out: ED50 (the source's name).
The subject of a further data set is HT-29. The experiment in a line: Cytotoxicity against human HT-29 cells. It is filed as functional. The following applies: read-out: ED50 (the source's name).

In ChEMBL document CHEMBL1150209, “(-)-Grandisin form Cryptocarya crassinervia” (J Nat Prod, 1991) one finds EC50 and LC50 data, which are given here for 1 compound.

Converted amounts (≈) assume the structure as drawn.

As a reminder, the LC50 is the concentration that kills 50% of the test population. A low value points to a more lethal substance.

For the compound `COc1cc([C@@H]2O[C@@H](c3cc(OC)c(OC)c(OC)c3)[C@H](C)[C@H]2C)cc(OC)c1OC` [GRANDISIN], the EC50 with A549, in the data set on MCF7 and with HT-29 was above 10 µg/mL in each case. Also, in data set [1], the LC50 stood at 21 µg/mL (≈ 48.6 µM).
